From PubChem BioAssay AID1259407 (Chemical Carcinogenesis Research Information System (CCRIS), 2018)
Calls of active or inactive are those of the source. How the calls were made is not given here.

Test system: CCRIS mutagenicity, Ames/micronucleus/aberration tests
Test: CCRIS mutagenicity studies
[1] = Test System: AMES SALMONELLA TYPHIMURIUM, Strain/Indicator: TA98, Metabolic Activation: NONE, Method: PREINCUBATION
[2] = Test System: AMES SALMONELLA TYPHIMURIUM, Strain/Indicator: TA100, Metabolic Activation: NONE, Method: PREINCUBATION
[3] = Test System: AMES SALMONELLA TYPHIMURIUM, Strain/Indicator: TA1535, Metabolic Activation: NONE, Method: PREINCUBATION
[4] = Test System: AMES SALMONELLA TYPHIMURIUM, Strain/Indicator: TA1537, Metabolic Activation: NONE, Method: PREINCUBATION
[5] = Test System: AMES SALMONELLA TYPHIMURIUM, Strain/Indicator: TA98, Metabolic Activation: NONE, Method: STANDARD PLATE
[6] = Test System: AMES SALMONELLA TYPHIMURIUM, Strain/Indicator: TA100, Metabolic Activation: NONE, Method: STANDARD PLATE
[7] = Test System: AMES SALMONELLA TYPHIMURIUM, Strain/Indicator: TA100, Metabolic Activation: RAT, LIVER, S-9, AROCLOR 1254, Method: STANDARD PLATE
[8] = Test System: AMES SALMONELLA TYPHIMURIUM, Strain/Indicator: TA1537, Metabolic Activation: RAT, LIVER, S-9, AROCLOR 1254, Method: STANDARD PLATE

CC(N)Cc1ccccc1 (stereo not given)
mutagenic call (Test System: AMES SALMONELLA TYPHIMURIUM, Strain/Indicator: TA98, Metabolic Activation: HAMSTER, LIVER, S-9, AROCLOR 1254 (4%, 10% OR 20%), Method: PREINCUBATION): inactive; negative | mutagenic call (Test System: AMES SALMONELLA TYPHIMURIUM, Strain/Indicator: TA98, Metabolic Activation: HAMSTER, LIVER, S-9, AROCLOR 1254 (4, 10 OR 20%), Method: PREINCUBATION): inactive; negative | mutagenic call [1]: inactive; negative | mutagenic call (Test System: AMES SALMONELLA TYPHIMURIUM, Strain/Indicator: TA98, Metabolic Activation: RAT, LIVER, S-9, AROCLOR 1254 (10%), Method: PREINCUBATION): inactive; negative | mutagenic call (Test System: AMES SALMONELLA TYPHIMURIUM, Strain/Indicator: TA100, Metabolic Activation: HAMSTER, LIVER, S-9, AROCLOR 1254 (10%), Method: PREINCUBATION): inactive; negative | mutagenic call [2]: inactive; negative | mutagenic call (Test System: AMES SALMONELLA TYPHIMURIUM, Strain/Indicator: TA100, Metabolic Activation: RAT, LIVER, S-9, AROCLOR 1254 (10%), Method: PREINCUBATION): inactive; negative | mutagenic call (Test System: AMES SALMONELLA TYPHIMURIUM, Strain/Indicator: TA1535, Metabolic Activation: HAMSTER, LIVER, S-9, AROCLOR 1254 (10%), Method: PREINCUBATION): inactive; negative | mutagenic call [3]: inactive; negative | mutagenic call (Test System: AMES SALMONELLA TYPHIMURIUM, Strain/Indicator: TA1535, Metabolic Activation: RAT, LIVER, S-9, AROCLOR 1254 (10%), Method: PREINCUBATION): inactive; negative | mutagenic call (Test System: AMES SALMONELLA TYPHIMURIUM, Strain/Indicator: TA1537, Metabolic Activation: HAMSTER, LIVER, S-9, AROCLOR 1254 (10%), Method: PREINCUBATION): inactive; negative | mutagenic call [4]: inactive; negative | mutagenic call (Test System: AMES SALMONELLA TYPHIMURIUM, Strain/Indicator: TA1537, Metabolic Activation: RAT, LIVER, S-9, AROCLOR 1254 (10%), Method: PREINCUBATION): inactive; negative

COc1ccc(-c2nc(-c3ccc(OC)cc3)c(-c3ccc(OC)cc3)[nH]2)cc1
mutagenic call [5]: active; positive | mutagenic call (Test System: AMES SALMONELLA TYPHIMURIUM, Strain/Indicator: TA98, Metabolic Activation: RAT LIVER S-9, 3-METHYLCHOLANTHRENE, SODIUM PHENOBARBITAL, Method: STANDARD PLATE): inactive; negative | mutagenic call [6]: inactive; negative | mutagenic call (Test System: AMES SALMONELLA TYPHIMURIUM, Strain/Indicator: TA100, Metabolic Activation: RAT LIVER S-9, 3-METHYLCHOLANTHRENE, SODIUM PHENOBARBITAL, Method: STANDARD PLATE): inactive; negative

c1cc2cccc3c4cccc5cccc(c(c1)c23)c54
mutagenic call (Test System: AMES SALMONELLA TYPHIMURIUM, Strain/Indicator: TA97, Metabolic Activation: NONE, Method: STANDARD PLATE): inactive; negative | mutagenic call (Test System: AMES SALMONELLA TYPHIMURIUM, Strain/Indicator: TA97, Metabolic Activation: RAT, LIVER, S-9, PCB, Method: STANDARD PLATE): active; positive | mutagenic call (Test System: AMES SALMONELLA TYPHIMURIUM, Strain/Indicator: TA97A, Metabolic Activation: RAT, LIVER, S-9, AROCLOR 1254, Method: STANDARD PLATE): active; positive | mutagenic call [5]: inactive; negative | mutagenic call (Test System: AMES SALMONELLA TYPHIMURIUM, Strain/Indicator: TA98, Metabolic Activation: RAT, LIVER, S-9, AROCLOR 1254 (20 OR 50 µL S-9), Method: STANDARD PLATE): active; positive | mutagenic call (Test System: AMES SALMONELLA TYPHIMURIUM, Strain/Indicator: TA98, Metabolic Activation: RAT, LIVER, S-9, PCB, Method: STANDARD PLATE): active; positive | mutagenic call [6]: inactive; negative | mutagenic call (Test System: AMES SALMONELLA TYPHIMURIUM, Strain/Indicator: TA100, Metabolic Activation: RAT, LIVER, S-9, AROCLOR 1254 (50 µL S-9), Method: STANDARD PLATE): active; positive | mutagenic call [7]: active; positive | mutagenic call (Test System: AMES SALMONELLA TYPHIMURIUM, Strain/Indicator: TA100, Metabolic Activation: RAT, LIVER, S-9, PCB, Method: STANDARD PLATE): active; positive | mutagenic call (Test System: AMES SALMONELLA TYPHIMURIUM, Strain/Indicator: TA1535, Metabolic Activation: RAT, LIVER, S-9, AROCLOR 1254, Method: STANDARD PLATE): active; positive | mutagenic call [8]: active; positive

CN(C)c1ccc2cc3ccc(N(C)C)cc3nc2c1
mutagenic call (Test System: AMES SALMONELLA TYPHIMURIUM, Strain/Indicator: TA98, Metabolic Activation: RAT, LIVER, S-9, AROCLOR 1254, Method: STANDARD PLATE): active; positive | mutagenic call [7]: active; positive | mutagenic call [8]: active; positive | mutagenic call (Test System: CHINESE HAMSTER OVARY, Strain/Indicator: CHO-K1-BH4 (HGPRT)/6-THIOGUANINE, Metabolic Activation: S-9, Method: SUSPENSION/PLATE): active; positive | mutagenic call (Test System: E. COLI, Strain/Indicator: WP2, Metabolic Activation: NONE, Method: PREINCUBATION): inactive; negative | mutagenic call (Test System: MOUSE LYMPHOMA, Strain/Indicator: L5178Y (TK+/TK-), Metabolic Activation: S-9, Method: SUSPENSION/PLATE): active; positive

COC(=O)C1=C(C)NC(C)=C(C(=O)OC/C=C/c2ccccc2)C1c1cccc([N+](=O)[O-])c1 (stereo not given)
mutagenic call [1]: inactive; negative | mutagenic call (Test System: AMES SALMONELLA TYPHIMURIUM, Strain/Indicator: TA98, Metabolic Activation: RAT, LIVER, S-9, PHENOBARBITAL AND 5,6-BENZOFLAVONE, Method: PREINCUBATION): inactive; negative | mutagenic call [2]: inactive; negative | mutagenic call (Test System: AMES SALMONELLA TYPHIMURIUM, Strain/Indicator: TA100, Metabolic Activation: RAT, LIVER, S-9, PHENOBARBITAL AND 5,6-BENZOFLAVONE, Method: PREINCUBATION): inactive; negative | mutagenic call [3]: inactive; negative | mutagenic call (Test System: AMES SALMONELLA TYPHIMURIUM, Strain/Indicator: TA1535, Metabolic Activation: RAT, LIVER, S-9, PHENOBARBITAL AND 5,6-BENZOFLAVONE, Method: PREINCUBATION): inactive; negative | mutagenic call [4]: inactive; negative | mutagenic call (Test System: AMES SALMONELLA TYPHIMURIUM, Strain/Indicator: TA1537, Metabolic Activation: RAT, LIVER, S-9, PHENOBARBITAL AND 5,6-BENZOFLAVONE, Method: PREINCUBATION): inactive; negative | mutagenic call (Test System: E. COLI, Strain/Indicator: WP2 UVRA, Metabolic Activation: NONE, Method: PREINCUBATION): inactive; negative | mutagenic call (Test System: E. COLI, Strain/Indicator: WP2 UVRA, Metabolic Activation: RAT, LIVER, S-9, PHENOBARBITAL AND 5,6-BENZOFLAVONE, Method: PREINCUBATION): inactive; negative
